This note sets out measurements from US20240133870A1, “COMBINED TREATMENT FOR CANCER” (Yeda Research and Development Co. Ltd., priority 2021, published 2024).

The subject of test [1] is colorectal BRAF (V600E) patient tumor. The experiment in a line: EVOC of a colorectal BRAF (V600E) patient biopsy, viability. The format is cell-based, human. The following applies: Dabrafenib 4 μM/trametinib 0.5 μM with or without trastuzumab or AZD4547 2 μM.
Protocol: Freshly resected biopsy was sliced, and cultured ex vivo. Following 4 days of drug treatment, slices were fixed and embedded in paraffin blocks. FFPE slices were stained by H&E, and the percentage of viable cancer cells was morphologically assessed on H&E stained sections by a pathologist as the ratio between viable cancer cell area and total cancer area (viable cancer cells plus necrotic cancer cells). […] Vehicle—DMSO, FGFRi—AZD4547 2 μM, HER2i—trastuzumab 30 g/ml, BRAFi/MEKi—Dabrafenib 4 μM/trametinib 0.5 μM.
Tumor tissue was obtained from patients at the time of operation or at the time of tissue core biopsy. Following resection, the fresh tissue was placed in ice-cold PBS for immediate transfer to the lab for ex vivo organ culturing. […]
Immunohistochemistry of EVOC tissues: To assess response therapy, 4 μm FFPE tissue slices were stained with H&E, or with specific antibodies: anti-pERK (Cell Signaling, #4370) followed by HRP conjugated secondary antibody (anti-Rabbit HRP, ZUC032, ZytoChem) and DAB staining (DAB substrate kit, DAB057, ZytoChem). […] All slides were scanned using the Pannoramic SCAN II (3[sequence]) and analyzed by a pathologist. The percentage of viable cancer cells was morphologically assessed on H&E stained sections by a pathologist as the ratio between viable cancer cell area and total cancer area (viable cancer cells plus necrotic cancer cells).
For another test, the system named is human NSCLC tumor biopsy. Kind of test: EVOC of NSCLC patient biopsies, viability. The format is cell-based. An excerpt:
Error bars represent standard error. […] Scale bar represents 50 μm. […] Error bars represent standard error. […] Scale bar represents 50 μm.
Scale bar represents 50 μm. […] Scale bar represents 50 μm. […] Scale bar represents 50 μm.

Test [2] has as its system SK-MEL-5 BRAF (V600E) melanoma cells. The experiment in a line: Co-culture of stroma (WI-38 or HS-5) and cancer cells. In kind it is cell-based, human. To be noted: co-culture with HS-5; inhibitor added to vemurafenib. As for the experimental part:
SK-MEL-5 BRAF (V600E) melanoma cells were co-cultured with the lung-derived stromal cell line WI-38 or with the bone marrow-derived stromal cell line HS-5 with or without vemurafenib (4 μM). […] Vehicle—DMSO, EGFRi—gefitinib (0.1 μM), EGFRi/HER2i—lapatinib (10 nM), METi—crizotinib (0.1 μM), FGFRi—AZD4547 (50 nM), NFkB/TNFRi—CAPE (10 μM), TGFBRi-LY2109761 (0.5 μM), gp130i—SC144 (1 nM). […] Error bars represent standard error. […] Error bars represent standard error. […] Human BRAF (V600E) melanoma cell lines UACC62 or G361 were used to generate xenograft tumor models in various tissues of nude mice. When tumors reached a volume of 500-700 μmm^3, they were resected, sliced, and cultured ex-vivo in the presence of different drug combinations or DMSO control. Following 4 days of drug treatment, slices were fixed, embedded in paraffin blocks, and subjected to immunohistochemistry, using anti-pERK antibody, or to immuno-fluorescence, using anti-pFGFR1 antibody. BRAFi (vemurafenib, 4 μM), FGFRi (AZD4547, 2 μM). Scale bar represents 50 μm.
Four hours later, the melanoma BRAF (V600E) mutated cell line SK-MEL-5 was seeded on top of the stromal cells at a concentration of 1700 cells per well, or seeded without stroma. […] Concentrations of the inhibitors were based on dose curves with SK-MEL-5. For each inhibitor of potential mechanism of resistance, the maximal concentration with minimal effect (toxicity) on cell growth was selected (Cmax).
To compare rScore value of stroma-mediated resistance with or without a given inhibitor, the rScore values of each inhibitor in the presence of stroma, was calculated. As a reduction in rScore may stem from mere toxicity of the inhibitor, rather than the abrogation of the stroma mediated resistance, each inhibitor rScore was penalized by its toxicity.
rScoreinhibitor=rScoreinhibitor+(rScorestroma−rScoreinhibitor)*tOxicitY(Cmax)inhibitor

Test [3] deals with HT-29 orthotopic xenograft colorectal tumors. The experiment in a line: EVOC of orthotopic colon tumors, pERK and H&E/BrDu. The format is cell-based, human. The following applies: AZD4547 0.5 μM, 96 hours of incubation. An excerpt: 500-700 μmm^3 tumors were resected, sliced, and cultured ex-vivo. Following 4 days of drug treatment, slices were fixed and embedded in paraffin blocks. FFPE slices were stained by H&E, and the percentage of viable cancer cells was morphologically assessed on H&E stained sections by a pathologist as the ratio between viable cancer cell area and total cancer area (viable cancer cells plus necrotic cancer cells). […] Each black dot in a given treatment condition represents a different tumor. P-values were calculated by two-sided t-test. *** P<0.001 ** P<0.01. Error bars represent standard error. […] Names of the six secreted factors with the highest rScore are shown. Factors related to TNF pathways are marked in gray. Results represent the average of at least two experiments. […] Cohort size pre-treatment: 5-6, P-values of the difference on the last day of experiment were calculated by one-sided Mann-Whitney test. * P<0.05. […] Viability percentage was calculated based on the entire field of view per treatment combination. […] FFPE slices were stained by pERK and pERK activity was assessed by a pathologist. […]
For the ex-vivo experiments EVOCs from immunocompromised mice bearing human tumors were generated, as further described hereinbelow. For the in-vivo validation experiments, mice bearing subcutaneous tumors were used; and response was measured by evaluating tumor volume. […]

AZD4547: the cancer cell viability entry is recorded as “did not improve the response to treatment” in test [1] and “did not affect cancer cell viability” with human NSCLC tumor biopsy (treatment-naïve patient, in combination with osimertinib 4 μM). For the same substance, in the test with human NSCLC tumor biopsy (patient refractory to osimertinib, osimertinib 4 μM with AZD4547 2 μM), the “response, cancer cell viability” value is “improved response as compared to osimertinib alone”. Moreover, in the test on human NSCLC tumor biopsy (treatment-naïve patient, AZD4547 0.2 μM added to gefitinib 1.6 μM), the cancer cells viability result is reported as “significantly reduced cancer cells viability”. Moreover, the “abrogation of stroma-mediated resistance to vemurafenib” value in test [2] is “needed to abrogate the resistance effect of HS-5”. The “H&E and BrDu staining of tissue” value in test [3] is “live and proliferating tissue”.
